From patent US20040087571A1, “Methods of using CCR1 antagonists as immunomodulatory agents” (Pfizer Inc, priority 2002, published 2004)

Structure (SMILES) | melting point
CNC(=O)[C@H](CC(C)C)C[C@H](O)[C@H](Cc1ccc(OCc2ccccc2)cc1)NC(=O)c1cnc2ccccc2n1 [Example 39, Quinoxaline-2-carboxylic acid [1(S)-(4-benzyloxy-benzyl)-2(S)-hydroxy-6-methyl-4(R)-methylcarbamoyl-heptyl]-amide] | 196 to 197 °C
CC(C)CC[C@H](C[C@H](O)[C@H](Cc1cccc(F)c1)NC(=O)c1cnc2ccccc2n1)C(N)=O [Example 135, Quinoxaline-2-carboxylic acid [4(R)-carbamoyl-1(S)-(3-fluoro-benzyl)-2(S)-hydroxy-7-methyl-octyl]-amide] | 191 to 191.5 °C
CNC(=O)[C@H](CC(C)C)C[C@H](O)[C@H](Cc1ccc(OS(=O)(=O)C(F)(F)F)cc1)NC(=O)c1cnc2ccccc2c1 [Example 50, Trifluoro-methanesulfonic acid 4-{3(S)-hydroxy-7-methyl-5(R)-methylcarbamoyl-2(S)-[(quinoline-3-carbonyl)-amino]-octyl}-phenyl ester] | 168 to 170 °C
NC(=O)[C@@H](C[C@H](O)[C@H](Cc1ccccc1)NC(=O)c1cnc2ccccc2n1)C1CCCCC1 [Example 168, Quinoxaline-2-carboxylic acid (1(S)-benzyl-4-carbamoyl-4(S)-cyclohexyl-2(S)-hydroxy-butyl)-amide] | 222 to 223 °C
CNC(=O)[C@H](CC(C)C)C[C@H](O)[C@H](Cc1ccc(F)cc1)NC(=O)c1cnc2ccccc2c1 [Example 89, Quinoline-3-carboxylic acid [1(S)-(4-fluoro-benzyl)-2(S)-hydroxy-6-methyl-4(R)-methylcarbamoyl-heptyl]-amide] | 184 to 186 °C
NC(=O)[C@@H](C[C@H](O)[C@H](Cc1ccccc1)NC(=O)c1cnc2ccccc2n1)C1CCOCC1 [Example 204, Quinoxaline-2-carboxylic acid [1(S)-benzyl-4(S)-carbamoyl-2(S)-hydroxy-4-(tetrahydro-pyran-4-yl)-butyl]-amide] | 151 to 154 °C
CC(C)(F)CC[C@H](C[C@H](O)[C@H](Cc1ccc(Cl)c(Cl)c1)NC(=O)c1cnc2c(F)c(F)ccc2c1)C(N)=O [Example 156, 7,8-Difluoro-quinoline-3-carboxylic acid [4(R)-carbamoyl-1(S)-(3,4-dichloro-benzyl)-7-fluoro-2(S)-hydroxy-7-methyl-octyl]-amide] | 187 to 189 °C
CCC(CC)[C@H](C[C@H](O)[C@H](Cc1ccccc1)NC(=O)c1cnc2ccccc2n1)C(N)=O [Example 203, Quinoxaline-2-carboxylic acid (1(S)-benzyl-4(S)-carbamoyl-5-ethyl-2(S)-hydroxy-heptyl)-amide] | 215 to 218 °C
CC(C)(F)CC[C@H](C[C@H](O)[C@H](Cc1ccc(Cl)c(Cl)c1)NC(=O)c1cnc2ccccc2n1)C(N)=O [Example 155, Quinoxaline-2-carboxylic acid [4(R)-carbamoyl-1(S)-(3,4-dichloro-benzyl)-7-fluoro-2(S)-hydroxy-7-methyl-octyl]-amide] | 206 to 207 °C
NC(=O)[C@@H](C[C@H](O)[C@H](Cc1ccccc1)NC(=O)c1cnc2ccccc2n1)C1CCCC1 [Example 171, Quinoxaline-2-carboxylic acid (1(S)-benzyl-4-carbamoyl-4(S)-cyclopentyl-2(S)-hydroxy-butyl)-amide] | 126 to 128 °C
CC1(C)CC([C@H](C[C@H](O)[C@H](Cc2ccccc2)NC(=O)c2cnc3ccccc3n2)C(N)=O)CC(C)(C)C1 [Example 179, Quinoxaline-2-carboxylic acid [1(S)-benzyl-4(S)-carbamoyl-2(S)-hydroxy-4-(3,3,5,5-tetramethyl-cyclohexyl)-butyl]-amide] | 188 to 190 °C
NC(=O)[C@H](Cc1ccc(OC(F)(F)F)cc1)C[C@H](O)[C@H](Cc1ccccc1)NC(=O)c1cnc2ccccc2n1 [Example 193, Quinoxaline-2-carboxylic acid [1(S)-benzyl-4(R)-carbamoyl-2(S)-hydroxy-5-(4-trifluoromethoxy-phenyl)-pentyl]-amide] | 184 to 187 °C
CNC(=O)[C@H](CC1CCCCC1)C[C@H](O)[C@H](CC1CCCCC1)NC(=O)c1cncc2ccccc12 [Example 62, Isoquinoline-4-carboxylic acid (5-cyclohexyl-1(S)-cyclohexylmethyl-2(S)-hydroxy-4(R)-methylcarbamoyl-pentyl)-amide] | 220.5 to 224 °C

More lines, now with the values ahead:

melting point | Structure (SMILES)
182 to 185 °C | NC(=O)[C@H](Cc1ccccc1Cl)C[C@H](O)[C@H](Cc1ccccc1)NC(=O)c1cnc2ccccc2n1 [Example 274, Quinoxaline-2-carboxylic acid [1(S)-benzyl-4(R)-carbamoyl-5-(2-chloro-phenyl)-2(S)-hydroxy-pentyl]-amide]
152 to 154 °C | CC(C)(F)CC[C@H](C[C@H](O)[C@H](Cc1ccccc1)NC(=O)c1cnc2ccccc2n1)C(=O)NCCc1cccs1 [Example 229, Quinoxaline-2-carboxylic acid [1(S)-benzyl-7-fluoro-2(S)-hydroxy-7-methyl-4(R)-(2-thiophen-2-yl-ethylcarbamoyl)-octyl]-amide]
154 to 155 °C | CC(C)(F)CC[C@H](C[C@H](O)[C@H](Cc1ccccc1)NC(=O)c1cnc2ccccc2n1)C(=O)NCCc1cccnc1 [Example 220, Quinoxaline-2-carboxylic acid [1(S)-benzyl-7-fluoro-2(S)-hydroxy-7-methyl-4(R)-(2-pyridin-3-yl-ethylcarbamoyl)-octyl]-amide]
111 to 115 °C | CC(C)(F)CC[C@H](C[C@H](O)[C@H](Cc1ccccc1)NC(=O)c1cnc2ccccc2n1)C(=O)NCC1CCCO1 (stereo partly drawn) [Example 240, Quinoxaline-2-carboxylic acid {1(S)-benzyl-7-fluoro-2(S)-hydroxy-7-methyl-4(R)-[(tetrahydrofuran-2-ylmethyl)-carbamoyl]-octyl}-amide]
182 to 186 °C | NC(=O)[C@H](Cc1ccccc1)C[C@H](O)[C@H](Cc1ccccc1)NC(=O)c1cnc2c(c1)CCC2 [Example 286, 6,7-Dihydro-5H-[1]pyrindine-3-carboxylic acid (1(S)-benzyl-4(R)-carbamoyl-2(S)-hydroxy-5-phenyl-pentyl)-amide]
189 to 191 °C | NC(=O)[C@@H](C[C@H](O)[C@H](Cc1ccccc1)NC(=O)c1cnc2ccccc2n1)C1(O)CCCCCC1 [Example 290, Quinoxaline-2-carboxylic acid [1(S)-benzyl-4(S)-carbamoyl-2(S)-hydroxy-4-(1-hydroxy-cycloheptyl)-butyl]-amide]
207 to 210 °C | CC(C)(F)CC[C@H](C[C@H](O)[C@H](Cc1ccccc1)NC(=O)c1cnc2ccccc2n1)C(=O)NCCc1ccc(S(N)(=O)=O)cc1 [Example 216, Quinoxaline-2-carboxylic acid {1(S)-benzyl-7-fluoro-2(S)-hydroxy-7-methyl-4(R)-[2-(4-sulfamoyl-phenyl)-ethylcarbamoyl]-octyl}-amide]
78 to 80 °C | CC(C)(F)CC[C@H](C[C@H](O)[C@H](Cc1ccccc1)NC(=O)c1cnc2ccccc2n1)C(=O)NCCc1ccncc1 [Example 221, Quinoxaline-2-carboxylic acid [1(S)-benzyl-7-fluoro-2(S)-hydroxy-7-methyl-4(R)-(2-pyridin-4-yl-ethylcarbamoyl)-octyl]-amide]
208 to 210 °C | NC(=O)[C@@H](C[C@H](O)[C@H](Cc1ccccc1)NC(=O)c1ccc2ccccc2n1)C1CCCCC1 [Example 262, Quinoline-2-carboxylic acid (1(S)-benzyl-4(S)-carbamoyl-4-cyclohexyl-2(S)-hydroxy-butyl)-amide]
162 to 164 °C | COc1ccc(CNC(=O)[C@H](CCC(C)(C)F)C[C@H](O)[C@H](Cc2ccccc2)NC(=O)c2cnc3ccccc3n2)cc1OC [Example 206, Quinoxaline-2-carboxylic acid [1(S)-benzyl-4(R)-(3,4-dimethoxy-benzylcarbamoyl)-7-fluoro-2(S)-hydroxy-7-methyl-octyl]-amide]
99 to 101 °C | COc1cccc(CNC(=O)[C@H](CCC(C)(C)F)C[C@H](O)[C@H](Cc2ccccc2)NC(=O)c2cnc3ccccc3n2)c1OC [Example 242, Quinoxaline-2-carboxylic acid [1(S)-benzyl-4(R)-(2,3-dimethoxy-benzylcarbamoyl)-7-fluoro-2(S)-hydroxy-7-methyl-octyl]-amide]
185.5 to 187.5 °C | CC(C)(F)CC[C@H](C[C@H](O)[C@H](Cc1ccc(I)cc1)NC(=O)c1cnc2ccccc2n1)C(N)=O [Example 250, Quinoxaline-2-carboxylic acid [4(R)-carbamoyl-7-fluoro-2(S)-hydroxy-1(S)-(4-iodo-benzyl)-7-methyl-octyl]-amide]
190 to 192 °C | O=C(N[C@@H](Cc1ccccc1)[C@@H](O)C[C@@H](Cc1ccccc1)C(=O)NO)c1cnc2ccccc2n1 [Example 276, Quinoxaline-2-carboxylic acid (1(S)-benzyl-2(S)-hydroxy-4(R)-hydroxycarbamoyl-5-phenyl-pentyl)-amide]
187 to 189 °C | NC(=O)[C@@H](C[C@H](O)[C@H](Cc1ccccc1)NC(=O)c1cnc2ccccc2n1)C1(O)CCCCC1 [Example 243, Quinoxaline-2-carboxylic acid [1(S)-benzyl-4(S)-carbamoyl-2(S)-hydroxy-4-(1-hydroxy-cyclohexyl)-butyl]-amide]
174 to 175 °C | CC(C)(F)CC[C@H](C[C@H](O)[C@H](Cc1ccccc1)NC(=O)c1cnc2ccccc2n1)C(=O)NCc1cccs1 [Example 213, Quinoxaline-2-carboxylic acid {1(S)-benzyl-7-fluoro-2(S)-hydroxy-7-methyl-4(R)-[(thiophen-2-ylmethyl)-carbamoyl]-octyl}-amide]
130 to 131 °C | CC(C)(O)CC[C@H](C[C@H](O)[C@H](Cc1ccccc1F)NC(=O)c1cnc2ccccc2n1)C(=O)NO [Example 320, Quinoxaline-2-carboxylic acid [1(S)-(2-fluoro-benzyl)-2(S),7-dihydroxy-4(R)-hydroxycarbamoyl-7-methyl-octyl]-amide]
118 to 119 °C | O=C(N[C@@H](Cc1ccccc1)[C@@H](O)C[C@H](C(=O)NO)C1(O)CCCCCC1)c1cnc2ccccc2n1 [Example 291, Quinoxaline-2-carboxylic acid [1(S)-benzyl-2(S)-hydroxy-4(S)-hydroxycarbamoyl-4-(1-hydroxy-cycloheptyl)-butyl]-amide]
